Consider 20 molecules from ChEMBL document CHEMBL4184194, “An appraisal on synthetic and pharmaceutical perspectives of pyrazolo[4,3-d]pyrimidine scaffold” (Bioorg Med Chem, 2018).

Test [1] addresses Cyclin-dependent kinase 1/cyclin B1 (Homo sapiens, UniProt P06493). As to the kind of experiment: Inhibition of CDK1/CyclinB (unknown origin). The format is protein-complex assay.
Test [2] relates to K562. As to the kind of experiment: Antiproliferative activity against human K562 cells. The format is functional, cell-based.
Test [3] concerns Candida albicans. In words: Antimicrobial activity against Candida albicans ATCC 10231 by two-fold serial dilution assay. In kind it is functional.
The subject of test [4] is Candida albicans. In words: Fungicidal activity against Candida albicans ATCC 10231 by two-fold serial dilution assay. The format is functional.
The test system of test [5] is Nicotiana tabacum. As to the kind of experiment: Growth inhibition of cytokinin-autonomous tobacco cells. In kind it is functional. The settings on record: for TGI: read-out: GI100.
For test [6], the system named is Nicotiana tabacum. In words: Toxicity in Nicotiana tabacum. In kind it is organism-based.
Test [7] concerns Nicotiana tabacum. As to the kind of experiment: Growth inhibition of cytokinin-requiring tobacco cells. The settings on record: for TGI: read-out: GI100. The format is functional.
For test [8], the system named is Nicotiana tabacum. In words: Anticytokinin activity against Nicotiana tabacum. The format is functional, organism-based.
The target of test [9] is Cyclin-dependent kinase 2/cyclin E1 (Homo sapiens, UniProt P24941). As to the kind of experiment: Inhibition of recombinant human full length N-terminal GST-tagged CDK2 (M1 to L298 residues)/CyclinE1 (M1 to A395 residues) expressed in baculovirus infected Sf9 insect cells using histone H1 as substrate by [gamma33P]ATP-based assay.
Another test concerns MCF7. As to the kind of experiment: Growth inhibition of human MCF7 cells after 72 hrs by Calcein AM dye based fluorescence assay. The format is functional. The settings on record: MCF7, 72 h.
Test [10] deals with K562. As to the kind of experiment: Growth inhibition of human K562 cells after 72 hrs by Calcein AM dye based fluorescence assay. In kind it is functional. The settings on record: K562, 72 h.
Another test has as its target CDK7/Cyclin H/MNAT1 (Homo sapiens, UniProt P50613). In words: Inhibition of recombinant human full length N-terminal GST/His6-tagged CDK7 (M1 to F346 residues)/N-terminal His6-tagged CyclinH (M1 to L323 residues)/N-terminal His6-tagged MAT1 (M1 to S306 residues) expressed in Sf9 insect cells.
In test [11] the target is Cyclin-dependent kinase 4/cyclin D1 (Homo sapiens, UniProt P11802). As to the kind of experiment: Inhibition of recombinant human N-terminal GST-tagged CDK4 (S4 to E303 residues)/CyclinD1 (Q4 to I295 residues) expressed in Sf9 insect cells.
Cyclin-dependent kinase 4/cyclin D1, sequence (P11802 whole entry, the tested form may be a part): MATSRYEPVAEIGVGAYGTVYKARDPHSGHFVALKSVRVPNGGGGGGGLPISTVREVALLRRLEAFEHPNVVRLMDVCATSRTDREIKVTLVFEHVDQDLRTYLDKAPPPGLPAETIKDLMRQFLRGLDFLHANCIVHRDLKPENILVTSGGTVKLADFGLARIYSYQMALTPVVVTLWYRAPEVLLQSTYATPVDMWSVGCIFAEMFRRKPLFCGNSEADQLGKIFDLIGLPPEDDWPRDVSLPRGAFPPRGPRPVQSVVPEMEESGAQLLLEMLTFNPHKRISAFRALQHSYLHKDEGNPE
Cyclin-dependent kinase 4/cyclin D1, sequence (P24385 whole entry, further chain, the tested form may be a part): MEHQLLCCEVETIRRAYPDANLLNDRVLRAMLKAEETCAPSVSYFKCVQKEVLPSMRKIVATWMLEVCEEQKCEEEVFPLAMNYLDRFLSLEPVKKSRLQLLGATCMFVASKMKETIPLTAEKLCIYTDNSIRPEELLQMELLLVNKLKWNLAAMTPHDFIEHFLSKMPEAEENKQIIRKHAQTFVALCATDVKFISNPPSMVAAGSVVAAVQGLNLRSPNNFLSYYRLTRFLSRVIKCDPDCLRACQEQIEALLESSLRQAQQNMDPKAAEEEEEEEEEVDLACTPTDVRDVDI
The subject of another test is Human alphaherpesvirus 1. As to the kind of experiment: Antiviral activity against HSV1 MP infected in African green monkey Vero cells assessed as inhibition of plaque formation after 48 hrs. In kind it is functional. The settings on record: Human alphaherpesvirus 1, MP, read-out: ED50 (the source's name).
Another test has as its target CDK6/cyclin D1 (Homo sapiens, UniProt Q00534). In words: Inhibition of recombinant human full length N-terminal GST-tagged CDK6 (M1 to A326 residues)/CyclinD1 (Q4 to I295 residues) expressed in Sf9 insect cells.
A further test concerns the target CDK9/cyclin T1 (Homo sapiens, UniProt P50750). In words: Inhibition of recombinant human full length N-terminal GST/His6-tagged CDK9 (M1 to F372 residues)/N-terminal His6-tagged CyclinT1 (M1 to K726 residues) expressed in Sf9 insect cells.
In test [12] the test system is Semliki Forest virus. In words: Antiviral activity against Semliki forest virus infected in Swiss Webster mouse assessed as mean survival time at 200 mg/kg, ip. In kind it is functional.
The test system of test [13] is Semliki Forest virus. As to the kind of experiment: Antiviral activity against Semliki forest virus infected in Swiss Webster mouse assessed as mean survival time at 100 mg/kg, ip. The format is functional.
The test system of test [14] is Semliki Forest virus. In words: Antiviral activity against Semliki forest virus infected in Swiss Webster mouse assessed as mouse survival at 200 mg/kg, ip measured after 18 to 24 hrs. In kind it is functional.
Test [15] relates to Semliki Forest virus. In words: Antiviral activity against Semliki forest virus infected in Swiss Webster mouse assessed as mean survival time at 10 mg/kg, ip. In kind it is functional.
In test [16] the test system is Semliki Forest virus. As to the kind of experiment: Antiviral activity against Semliki forest virus infected in Swiss Webster mouse assessed as mouse survival at 30 mg/kg, ip measured after 18 to 24 hrs. The format is functional.
The subject of test [17] is Semliki Forest virus. In words: Antiviral activity against Semliki forest virus infected in Swiss Webster mouse assessed as mean survival time at 30 mg/kg, ip. The format is functional.
In test [18] the test system is Semliki Forest virus. In words: Antiviral activity against Semliki forest virus infected in Swiss Webster mouse assessed as mouse survival at 100 mg/kg, ip measured after 18 to 24 hrs. In kind it is functional.
Test [19] concerns Semliki Forest virus. As to the kind of experiment: Antiviral activity against Semliki forest virus infected in Swiss Webster mouse assessed as mouse survival at 10 mg/kg, ip measured after 18 to 24 hrs. The format is functional.
Test [20] deals with Semliki Forest virus. In words: Antiviral activity against Semliki forest virus infected in Swiss Webster mouse assessed as mouse survival at 50 mg/kg, ip measured after 18 to 24 hrs. In kind it is functional.
Test [21] concerns Semliki Forest virus. As to the kind of experiment: Antiviral activity against Semliki forest virus infected in Swiss Webster mouse assessed as mean survival time at 50 mg/kg, ip. The format is functional.
The test system of test [22] is Pseudomonas aeruginosa. As to the kind of experiment: Bactericidal activity against Pseudomonas aeruginosa ATCC 9027 by two-fold serial dilution assay. In kind it is functional.
The next test relates to Staphylococcus aureus. As to the kind of experiment: Bactericidal activity against Staphylococcus aureus ATCC 6538 by two-fold serial dilution assay. In kind it is functional.
For test [23], the system named is Pseudomonas aeruginosa. In words: Antimicrobial activity against Pseudomonas aeruginosa ATCC 9027 by two-fold serial dilution assay. The format is functional.
Another test deals with Escherichia coli. In words: Bactericidal activity against Escherichia coli NCTC 10418 by two-fold serial dilution assay. The format is functional.

Values after ≈ are worked out from the molar mass of the structure shown.

CDK7/Cyclin H/MNAT1, sequence (P51946 whole entry, the tested form may be a part): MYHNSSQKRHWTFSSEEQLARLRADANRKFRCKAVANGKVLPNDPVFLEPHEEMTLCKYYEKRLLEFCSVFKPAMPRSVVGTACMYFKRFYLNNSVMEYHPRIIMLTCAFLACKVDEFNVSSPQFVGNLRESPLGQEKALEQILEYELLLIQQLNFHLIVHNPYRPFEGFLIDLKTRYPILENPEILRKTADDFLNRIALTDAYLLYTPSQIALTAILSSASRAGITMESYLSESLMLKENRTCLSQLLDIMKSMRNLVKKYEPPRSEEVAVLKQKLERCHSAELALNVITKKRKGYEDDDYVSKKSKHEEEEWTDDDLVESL
CDK7/Cyclin H/MNAT1, sequence (P50613 whole entry, the tested form may be a part): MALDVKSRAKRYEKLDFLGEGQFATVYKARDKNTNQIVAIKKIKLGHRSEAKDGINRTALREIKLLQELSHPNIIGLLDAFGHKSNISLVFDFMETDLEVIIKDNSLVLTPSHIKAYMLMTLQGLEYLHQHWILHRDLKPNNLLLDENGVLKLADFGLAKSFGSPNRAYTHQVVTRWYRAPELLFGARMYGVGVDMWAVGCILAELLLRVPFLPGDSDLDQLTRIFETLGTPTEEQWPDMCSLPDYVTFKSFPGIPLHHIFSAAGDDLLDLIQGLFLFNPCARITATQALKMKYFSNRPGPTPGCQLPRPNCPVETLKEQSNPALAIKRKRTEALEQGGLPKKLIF
CDK7/Cyclin H/MNAT1, sequence (P51948 whole entry, further chain, the tested form may be a part): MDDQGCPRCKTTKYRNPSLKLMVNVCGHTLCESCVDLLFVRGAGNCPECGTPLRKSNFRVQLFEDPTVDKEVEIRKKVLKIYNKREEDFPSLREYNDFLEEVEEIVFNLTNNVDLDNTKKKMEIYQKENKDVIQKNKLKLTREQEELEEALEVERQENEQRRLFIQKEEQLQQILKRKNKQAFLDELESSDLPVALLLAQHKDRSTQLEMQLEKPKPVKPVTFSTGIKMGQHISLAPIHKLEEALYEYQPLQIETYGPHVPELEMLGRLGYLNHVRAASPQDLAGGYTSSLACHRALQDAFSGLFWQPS
CDK6/cyclin D1, sequence (P24385 whole entry, the tested form may be a part): as the sequence (P24385 whole entry, further chain, the tested form may be a part) above
CDK6/cyclin D1, sequence (Q00534 whole entry, the tested form may be a part): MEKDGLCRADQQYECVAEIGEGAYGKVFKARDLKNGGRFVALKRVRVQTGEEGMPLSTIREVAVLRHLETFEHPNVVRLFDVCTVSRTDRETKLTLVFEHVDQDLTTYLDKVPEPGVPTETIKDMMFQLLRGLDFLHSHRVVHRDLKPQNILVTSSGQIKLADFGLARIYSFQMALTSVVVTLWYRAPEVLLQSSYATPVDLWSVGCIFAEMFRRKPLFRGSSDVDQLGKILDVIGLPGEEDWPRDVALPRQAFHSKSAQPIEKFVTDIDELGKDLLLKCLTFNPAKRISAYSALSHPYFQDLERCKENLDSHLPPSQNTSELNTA
Cyclin-dependent kinase 1/cyclin B1, sequence (P06493 whole entry): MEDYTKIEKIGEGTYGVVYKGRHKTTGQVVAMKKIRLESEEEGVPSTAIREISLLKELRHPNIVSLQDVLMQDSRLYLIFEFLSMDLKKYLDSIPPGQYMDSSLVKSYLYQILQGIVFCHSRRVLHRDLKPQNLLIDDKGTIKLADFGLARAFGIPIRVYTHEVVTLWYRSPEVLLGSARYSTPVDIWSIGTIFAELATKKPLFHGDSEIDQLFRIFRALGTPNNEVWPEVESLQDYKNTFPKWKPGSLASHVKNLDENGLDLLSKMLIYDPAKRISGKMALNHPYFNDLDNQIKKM
Cyclin-dependent kinase 1/cyclin B1, sequence (P14635 whole entry, further chain): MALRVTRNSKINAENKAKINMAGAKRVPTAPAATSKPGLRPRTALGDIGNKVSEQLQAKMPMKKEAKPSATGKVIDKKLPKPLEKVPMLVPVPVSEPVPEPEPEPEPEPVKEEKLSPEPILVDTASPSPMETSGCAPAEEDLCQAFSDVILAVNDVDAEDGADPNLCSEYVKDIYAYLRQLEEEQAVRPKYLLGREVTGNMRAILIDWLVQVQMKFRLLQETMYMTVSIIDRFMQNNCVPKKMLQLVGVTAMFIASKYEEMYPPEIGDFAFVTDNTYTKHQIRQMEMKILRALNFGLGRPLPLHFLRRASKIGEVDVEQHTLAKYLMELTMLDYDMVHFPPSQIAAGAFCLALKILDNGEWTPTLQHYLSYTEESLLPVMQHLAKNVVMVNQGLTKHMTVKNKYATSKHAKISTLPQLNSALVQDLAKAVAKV
CDK9/cyclin T1, sequence (O60563 whole entry, the tested form may be a part): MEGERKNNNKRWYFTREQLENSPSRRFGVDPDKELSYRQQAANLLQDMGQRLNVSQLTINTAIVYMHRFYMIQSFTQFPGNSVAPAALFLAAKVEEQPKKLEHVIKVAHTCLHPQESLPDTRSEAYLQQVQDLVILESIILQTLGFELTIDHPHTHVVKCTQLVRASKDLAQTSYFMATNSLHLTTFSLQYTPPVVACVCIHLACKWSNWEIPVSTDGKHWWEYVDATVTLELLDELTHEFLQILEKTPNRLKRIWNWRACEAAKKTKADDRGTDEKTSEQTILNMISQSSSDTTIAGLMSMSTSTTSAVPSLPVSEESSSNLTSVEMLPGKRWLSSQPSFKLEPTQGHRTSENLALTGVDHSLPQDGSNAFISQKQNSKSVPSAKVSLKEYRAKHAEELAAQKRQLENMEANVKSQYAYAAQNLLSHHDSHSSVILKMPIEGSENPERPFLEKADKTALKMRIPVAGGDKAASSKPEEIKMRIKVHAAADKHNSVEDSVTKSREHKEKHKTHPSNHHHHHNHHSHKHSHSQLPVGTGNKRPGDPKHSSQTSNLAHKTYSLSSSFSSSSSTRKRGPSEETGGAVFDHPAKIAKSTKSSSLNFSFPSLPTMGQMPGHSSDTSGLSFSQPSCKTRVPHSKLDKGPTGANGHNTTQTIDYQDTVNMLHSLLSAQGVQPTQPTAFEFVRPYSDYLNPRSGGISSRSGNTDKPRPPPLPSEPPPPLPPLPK
CDK9/cyclin T1, sequence (P50750 whole entry, the tested form may be a part): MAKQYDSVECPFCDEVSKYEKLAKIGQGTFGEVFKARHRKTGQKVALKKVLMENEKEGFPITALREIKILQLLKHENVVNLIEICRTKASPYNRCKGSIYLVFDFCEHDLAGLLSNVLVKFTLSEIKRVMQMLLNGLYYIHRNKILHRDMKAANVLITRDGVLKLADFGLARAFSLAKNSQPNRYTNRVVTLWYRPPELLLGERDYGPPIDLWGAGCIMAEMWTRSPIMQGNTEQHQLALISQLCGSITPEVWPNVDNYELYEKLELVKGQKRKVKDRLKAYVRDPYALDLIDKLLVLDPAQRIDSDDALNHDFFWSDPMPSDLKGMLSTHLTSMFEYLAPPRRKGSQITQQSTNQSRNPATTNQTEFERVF

`CC(C)c1n[nH]c2c(NCc3ccccc3O)ncnc12`: the IC50 in [1] stood at 440 nM; in the test on K562 [2], 54000 nM.
For the molecule `O=c1[nH]cnc2c(-c3ccc(Br)cc3)n[nH]c12`, in the test on Candida albicans [3], the MIC was 250 µg/mL (≈ 859 µM). The same molecule yielded an MFC in the test on Candida albicans [4] of 250 µg/mL (≈ 859 µM).
For the molecule `CCCCCNc1ncnc2c(C)n[nH]c12`, the GI50 with Nicotiana tabacum [5] came to 25 nM; with Nicotiana tabacum [7] it was 20 nM. For the same molecule, the TGI with Nicotiana tabacum [5] and in the test with Nicotiana tabacum [7] was 50 nM in each case. In addition, the IC50 with Nicotiana tabacum [6] was found to be 200 nM; in the test with Nicotiana tabacum [8], 30 nM.
Turning to `Cc1n[nH]c2c(NCCC(C)C)ncnc12`, the results for the IC50 in the test with Nicotiana tabacum [6] and in the test on Nicotiana tabacum [8] were 730 nM and 100 nM, respectively.
Consider `CC[C@@H](CO)Nc1nc(NCc2ccccc2N)c2[nH]nc(C(C)C)c2n1`, for which, in test [9], the IC50 was 15.3 nM. The values for the GI50 in the test on MCF7 and with K562 [10] were 10900 nM and 22300 nM, respectively.
Turning to `CC(C)c1n[nH]c2c(NCc3ccccc3)nc(NC3CCC(N)CC3)nc12` (stereo not given), the IC50 was above 100000 nM at CDK7/Cyclin H/MNAT1 and 6600 nM in test [11].
With `Cc1nn([C@@H]2O[C@H](CO)[C@@H](O)[C@H]2O)c2c(=O)n(-c3ccc(Cl)cc3)cnc12`, the EC50 in the test with Human alphaherpesvirus 1 is 50000 nM.
For `Cc1n[nH]c2c(NCc3ccccc3)ncnc12`, in the test with Nicotiana tabacum [5], halving of growth (GI50) required 30 nM and the TGI stood at 100 nM. In the test on Nicotiana tabacum [7], growth was halved (GI50) at 40 nM and the TGI was 150 nM.
On to `CCCCCCNc1ncnc2c(C)n[nH]c12`, for which the half-inhibitory concentration (IC50) in the test on Nicotiana tabacum [6] turned out to be 500 nM; in the test on Nicotiana tabacum [8] it was 30 nM.
`COc1ccc(Cn2cnc3c(C)nn([C@@H]4O[C@H](CO)[C@@H](O)[C@H]4O)c3c2=O)cc1`: in the test with Human alphaherpesvirus 1, the EC50 came to 49500 nM.
For `CC(C)c1n[nH]c2c(NCc3ccccc3)nc(NC3CCCCC3N)nc12` (stereo not given), the values for the IC50 on CDK7/Cyclin H/MNAT1, at CDK6/cyclin D1 and at CDK9/cyclin T1 were above 100000 nM, above 100000 nM and above 1000 nM, respectively.
Turning to `Cn1nc([C@@H]2O[C@H](CO)[C@@H](O)[C@H]2O)c2nc(N)[nH]c(=O)c21`, the MST came out at 7 days in the test with Semliki Forest virus [12]; 8 days with Semliki Forest virus [13]; 9.6 days with Semliki Forest virus [15]; 9.2 days in the test on Semliki Forest virus [17]; 6 days in the test on Semliki Forest virus [21]. Further, in the test on Semliki Forest virus [14], the survival at 200 mg/kg amounted to 58%. The survival at 30 mg/kg with Semliki Forest virus [16] came to 50%. Moreover, in the test with Semliki Forest virus [18], the survival at 100 mg/kg was found to be 67%. For the same molecule, the survival at 10 mg/kg in the test on Semliki Forest virus [19] was found to be 8%. Besides, the survival at 50 mg/kg in the test on Semliki Forest virus [20] amounted to 67%.
Turning to `CCCCn1cnc2c(C)nn([C@@H]3O[C@H](CO)[C@@H](O)[C@H]3O)c2c1=O`, the EC50 in the test on Human alphaherpesvirus 1 is 152000 nM.
Regarding `CC(C)c1n[nH]c2c(NCc3ccccc3N)nc(NC[C@@H](C)O)nc12`, the IC50 in test [9] is 16.5 nM. In addition, the 50% growth inhibitory concentration (GI50) is 4400 nM in the test with MCF7 and 15500 nM in the test on K562 [10].
Consider `CC[C@H](CO)Nc1nc(NCc2ccccc2N)c2[nH]nc(C(C)C)c2n1`, for which the IC50 in test [9] is 10.5 nM. The GI50 with MCF7 was 2800 nM; with K562 [10], 9200 nM.
In the case of `CC1(C)S[C@@H]2[C@H](NC(=O)[C@H](N)c3ccccc3)C(=O)N2[C@H]1C(=O)O` [AMPICILLIN], the MBC in the test with Pseudomonas aeruginosa [22] was 500 µg/mL (≈ 1430 µM); in the test with Staphylococcus aureus, 15.6 µg/mL (≈ 44.7 µM); with Escherichia coli, 31.2 µg/mL (≈ 89.4 µM). Besides, the MIC with Pseudomonas aeruginosa [23] is 250 µg/mL (≈ 715 µM).
In turn, `Clc1ccccc1C(c1ccccc1)(c1ccccc1)n1ccnc1` [CLOTRIMAZOLE] gave an MIC in the test with Candida albicans [3] of 7.81 µg/mL (≈ 22.6 µM). The MFC against Candida albicans [4] was determined as 15.6 µg/mL (≈ 45.3 µM).
For the molecule `O=c1[nH]c(=O)n([C@H]2C[C@H](O)[C@@H](CO)O2)cc1I` [IDOXURIDINE], the EC50 with Human alphaherpesvirus 1 worked out at 1200 nM.
In the case of `Nc1nc(=O)c2sc(=O)n([C@@H]3O[C@H](CO)[C@@H](O)[C@H]3O)c2[nH]1` [ISATORIBINE], the MST in the test with Semliki Forest virus [13] amounted to 8 days. Further, in the test with Semliki Forest virus [18], the survival at 100 mg/kg is 92%.
Take `Cn1cnc2c(NCc3ccccc3)nc(NCCO)nc21` [OLOMOUCINE]: half-maximal inhibition in the test with K562 [2] (IC50) was put at 163000 nM.

In general, IC50 refers to the point on the concentration scale where inhibition reaches its midpoint. Broadly, the MIC is the least concentration at which growth counts as inhibited. As usually defined, the MFC is the smallest concentration meeting the test's criterion for killing the fungus. Broadly, the GI50 is the concentration giving 50% growth inhibition. What is called MBC is the lowest tested concentration that kills the bacteria rather than only halting them.
